In general, IC50 refers to the midpoint of a concentration-inhibition curve.

These results are taken from BindingDB's records for doi:10.1021/jm050824x (Chembridge Research Laboratories and Chembridge, 2006).

A short description of assay [1]: Antiproliferative activity against murine BaF3 cell line expressing NPM-ALK.
A short description of assay [2]: Antiproliferative activity against human NPM-ALK positive anaplastic large cell lymphoma karpas299 cell line.

Regarding `CN1CCN(Cc2ccc(NC(=O)c3cc(-c4ccc5c(c4)OCO5)c[nH]c3=O)cc2)CC1` [5-benzo[1,3]dioxol-5-yl-2-oxo-1,2-dihydro-pyridine-3-carboxylic acid [4-(4-methyl-piperazin-1-ylmethyl)-phenyl]-amide], the half-maximal inhibitory concentration (IC50) was more than 25 µM in assay [1] and 11.2 µM in assay [2].
In turn, `CN1CCN(CCc2ccc(NC(=O)c3cc(-c4ccc5c(c4)OCO5)c[nH]c3=O)cc2)CC1` [5-benzo[1,3]dioxol-5-yl-2-oxo-1,2-dihydro-pyridine-3-carboxylic acid {4-[2-(4-methyl-piperazin-1-yl)-ethyl]-phenyl}-amide] gave a half-inhibitory concentration (IC50) in assay [2] of 7.5 µM. That is a single-digit micromolar value.
Turning to `CN1CCN(CCCc2ccc(NC(=O)c3cc(-c4ccc5c(c4)OCO5)c[nH]c3=O)cc2)CC1` [5-benzo[1,3]dioxol-5-yl-2-oxo-1,2-dihydro-pyridine-3-carboxylic acid {4-[3-(4-methyl-piperazin-1-yl)-propyl]-phenyl}-amide], the IC50 in assay [1] is 13.7 µM.
